Legend:
[1] = Cytotoxicity against mouse J774.1 cells; assay type: cell-based
[2] = Cytotoxicity against mouse J7.DEF.3 cells; assay type: cell-based

Structure (SMILES) | log(1/C) [1] | log(1/C) [2]
CC(=O)O[C@H]1C(=O)[C@@]2(C)[C@H]([C@H](OC(=O)c3ccccc3)[C@]3(O)C[C@H](OC(=O)[C@H](O)[C@@H](NC(=O)c4ccco4)c4ccccc4)C(C)=C1C3(C)C)[C@]1(OC(C)=O)CO[C@@H]1C[C@@H]2O | 8.3 | 6.7
CC(=O)O[C@H]1C(=O)[C@@]2(C)[C@H]([C@H](OC(=O)c3ccccc3)[C@]3(O)C[C@H](OC(=O)[C@H](O)[C@@H](NC(=O)c4ccc(F)cc4)c4ccccc4)C(C)=C1C3(C)C)[C@]1(OC(C)=O)CO[C@@H]1C[C@@H]2O | 7.68 | 7.77
CC(=O)O[C@H]1C(=O)[C@@]2(C)[C@H]([C@H](OC(=O)c3ccccc3)[C@]3(O)C[C@H](OC(=O)[C@H](O)[C@@H](NC(=O)c4ccc(C)cc4)c4ccccc4)C(C)=C1C3(C)C)[C@]1(OC(C)=O)CO[C@@H]1C[C@@H]2O | 7.77 | 7.82
CC(=O)O[C@H]1C(=O)[C@@]2(C)[C@H]([C@H](OC(=O)c3ccccc3)[C@]3(O)C[C@H](OC(=O)[C@H](O)[C@@H](NC(=O)Cc4ccccc4)c4ccccc4)C(C)=C1C3(C)C)[C@]1(OC(C)=O)CO[C@@H]1C[C@@H]2O | 7.11 | 7.32
CC(=O)O[C@H]1C(=O)[C@@]2(C)[C@H]([C@H](OC(=O)c3ccccc3)[C@]3(O)C[C@H](OC(=O)[C@H](O)[C@@H](NC(=O)c4ccc(Cl)cc4)c4ccccc4)C(C)=C1C3(C)C)[C@]1(OC(C)=O)CO[C@@H]1C[C@@H]2O | 7.52 | 7.59
CC(=O)O[C@H]1C(=O)[C@@]2(C)[C@H]([C@H](OC(=O)c3ccccc3)[C@]3(O)C[C@H](OC(=O)[C@H](O)[C@@H](NC(=O)c4ccc(C(C)(C)C)cc4)c4ccccc4)C(C)=C1C3(C)C)[C@]1(OC(C)=O)CO[C@@H]1C[C@@H]2O | 7.62 | 7.6
CC(=O)O[C@H]1C(=O)[C@@]2(C)[C@H]([C@H](OC(=O)c3ccccc3)[C@]3(O)C[C@H](OC(=O)[C@H](O)[C@@H](NC(=O)c4ccc(-c5ccccc5)cc4)c4ccccc4)C(C)=C1C3(C)C)[C@]1(OC(C)=O)CO[C@@H]1C[C@@H]2O | 7.31 | 6.85
CC(=O)O[C@H]1C(=O)[C@@]2(C)[C@H]([C@H](OC(=O)c3ccccc3)[C@]3(O)C[C@H](OC(=O)[C@H](O)[C@@H](NC(=O)c4cccc5ccccc45)c4ccccc4)C(C)=C1C3(C)C)[C@]1(OC(C)=O)CO[C@@H]1C[C@@H]2O | 7.17 | 6.43
CC(=O)O[C@H]1C(=O)[C@@]2(C)[C@H]([C@H](OC(=O)c3ccccc3)[C@]3(O)C[C@H](OC(=O)[C@H](O)[C@@H](NC(=O)c4cccs4)c4ccccc4)C(C)=C1C3(C)C)[C@]1(OC(C)=O)CO[C@@H]1C[C@@H]2O | 8.7 | 7.8
CC(=O)O[C@H]1C(=O)[C@@]2(C)[C@H]([C@H](OC(=O)c3ccccc3)[C@]3(O)C[C@H](OC(=O)[C@H](O)[C@@H](NC(=O)/C=C/c4ccccc4)c4ccccc4)C(C)=C1C3(C)C)[C@]1(OC(C)=O)CO[C@@H]1C[C@@H]2O | 7.52 | 7.11
CCCc1ccc(C(=O)N[C@@H](c2ccccc2)[C@@H](O)C(=O)O[C@H]2C[C@@]3(O)[C@@H](OC(=O)c4ccccc4)[C@@H]4[C@]5(OC(C)=O)CO[C@@H]5C[C@H](O)[C@@]4(C)C(=O)[C@H](OC(C)=O)C(=C2C)C3(C)C)cc1 | 7.74 | 7.77
CCc1ccc(C(=O)N[C@@H](c2ccccc2)[C@@H](O)C(=O)O[C@H]2C[C@@]3(O)[C@@H](OC(=O)c4ccccc4)[C@@H]4[C@]5(OC(C)=O)CO[C@@H]5C[C@H](O)[C@@]4(C)C(=O)[C@H](OC(C)=O)C(=C2C)C3(C)C)cc1 | 7.82 | 7.85
COc1ccc(C(=O)N[C@@H](c2ccccc2)[C@@H](O)C(=O)O[C@H]2C[C@@]3(O)[C@@H](OC(=O)c4ccccc4)[C@@H]4[C@]5(OC(C)=O)CO[C@@H]5C[C@H](O)[C@@]4(C)C(=O)[C@H](OC(C)=O)C(=C2C)C3(C)C)cc1OC | 7.21 | 7.24
COc1ccc(C(=O)N[C@@H](c2ccccc2)[C@@H](O)C(=O)O[C@H]2C[C@@]3(O)[C@@H](OC(=O)c4ccccc4)[C@@H]4[C@]5(OC(C)=O)CO[C@@H]5C[C@H](O)[C@@]4(C)C(=O)[C@H](OC(C)=O)C(=C2C)C3(C)C)c(OC)c1 | 7.12 | 7.08
CC(=O)O[C@H]1C(=O)[C@@]2(C)[C@H]([C@H](OC(=O)c3ccccc3)[C@]3(O)C[C@H](OC(=O)[C@H](O)[C@@H](NC(=O)c4ccc5ccccc5c4)c4ccccc4)C(C)=C1C3(C)C)[C@]1(OC(C)=O)CO[C@@H]1C[C@@H]2O | 7.68 | 7.26
CC(=O)O[C@H]1C(=O)[C@@]2(C)[C@H]([C@H](OC(=O)c3ccccc3)[C@]3(O)C[C@H](OC(=O)[C@H](O)[C@@H](NC(=O)c4ccc(F)cc4F)c4ccccc4)C(C)=C1C3(C)C)[C@]1(OC(C)=O)CO[C@@H]1C[C@@H]2O | 7.59 | 7.6
COc1ccc(C(=O)N[C@@H](c2ccccc2)[C@@H](O)C(=O)O[C@H]2C[C@@]3(O)[C@@H](OC(=O)c4ccccc4)[C@@H]4[C@]5(OC(C)=O)CO[C@@H]5C[C@H](O)[C@@]4(C)C(=O)[C@H](OC(C)=O)C(=C2C)C3(C)C)cc1 | 7.23 | 7.43
CC(=O)O[C@@]12CO[C@@H]1C[C@H](O)[C@@]1(C)C(=O)[C@H](O)C3=C(C)[C@@H](OC(=O)[C@H](O)[C@@H](NC(=O)OC(C)(C)C)c4ccccc4)C[C@@](O)([C@@H](OC(=O)c4ccccc4)[C@H]21)C3(C)C.O.O.O [DOCETAXEL] | 8.24 | 8.14
CC(=O)O[C@H]1C(=O)[C@@]2(C)[C@H]([C@H](OC(=O)c3ccccc3)[C@]3(O)C[C@H](OC(=O)[C@H](O)[C@@H](NC(=O)c4ccccc4)c4ccccc4)C(C)=C1C3(C)C)[C@]1(OC(C)=O)CO[C@@H]1C[C@@H]2O [PACLITAXEL] | 7.48 | 7.52

Source: ChEMBL document CHEMBL1154484, “A QSAR study for the cytotoxic activities of taxoids against macrophage (MPhi)-like cells” (Eur J Med Chem, 2009)
